This is an account of results in patent publication US10874686B2, “Anthranilyl-adenosinemonosulfamate analogs and uses thereof” (Memorial Sloan-Kettering Cancer Center, priority 2015, dated 2020).

As a reminder, the Km is the substrate concentration at which the rate is half of its maximum.

One assay deals with PqsA (Pseudomonas aeruginosa, UniProt Q9I4X3). Particulars: previous biochemical studies; read-out: Km as PqsA substrate; cited from earlier work.
Another assay concerns the target P. aeruginosa PqsA (Pseudomonas aeruginosa, UniProt Q9I4X3). In words: PqsA inhibition, spectrophotometric assay with recombinant PqsA (anthranilyl-CoA formation at 365 nm). The assay is classed as biochemical. Particulars: short time scale of the assay. On the procedure:
PqsA inhibitors were evaluated using a quantitative spectrophotometric assay with recombinant PqsA, detecting formation of anthranilyl-CoA at 365 nm. See, e.g., Coleman et al. (2008) J. Bacteriol. 190, 1247. […] See, e.g., Morrison et al. Biochim. Biophys. Acta, Enzymol. 185, 269-286; Williams et al. (1979) Methods Enzymol. 63, 437. […] See, e.g., Qiao et al. (2007) J. Am. Chem. Soc. 129, 6350.
Reactions were performed at 37° C. in a 0.5 mL volume in a Varian Cary 100 UV-visible spectrophotometer with Cary WinUV software. Reaction mixtures contained 100 mM HEPES, pH 8.0, 0.2 mM dithiothreitol, 2 mM MgCl2, ˜3.3 μg PqsA protein (˜60 nM final), and depending on which substrate varied, 1 mM ATP (disodium salt), 0.5 mM coenzyme A (tri-lithium salt), 0.5 mM sodium anthranilate, and inhibitor (usually as a DMSO stock solution). Reactions were blanked and preincubated with all components except anthranilate at 37° C. for 1 min, then initiated by addition of anthranilate. Formation of anthraniloyl-CoA was monitored ance at 365 nm (ε=5.5 mM−1 cm−1) for 1 min. Data were analyzed using GraphPad Prism 6 software.

For assay [1], the system named is HHQ and PQS quinolone production in P. aeruginosa strain PA14. Nature of the assay: Inhibition of HHQ and PQS quinolone production in P. aeruginosa strain PA14 (LC-MS/MS). Particulars: 1.5 mM, HHQ 8 h, PQS 20 h. The assay is classed as cell-based, Pseudomonas aeruginosa. As for the experimental part:
The production of PQS and HHQ by strain PA14 was performed in triplicate in 14-mL round bottom falcon tubes containing 3-mL cultures in LB medium. Tubes were incubated at 37° C. in an orbital shaker at 225 rpm. Cultures were inoculated with 15-hour culture in LB in order to obtain a starting OD600=0.05, with or without inhibitors added. For PQS and HHQ analysis, a 20 μl aliquot was taken at time points as indicated. Each sample was diluted with 180 μL of methanol containing the internal standard (100 μM of d^4-PQS or d^4-HHQ) and 2% acetic acid. The solution was then vertexed and centrifuged at 13,000 g for 5 minutes, and the supernatant was transferred to a 96-well plates for LC-MS/MS analysis. Bacterial growth was measured by recording OD600 at 20 h to provide the data in FIG. 7A.
Liquid chromatography tandem mass spectrometry (LC-MS/MS) was carried out on an Agilent Technologies 6410 triple quad LC-MS/MS system with autosampler in electrospray ionization (ESI) mode, with an Agilent Zorbax Eclipse XDB-C18 reverse phase column (50×4.6 mm, 5 μm) using a flow rate of 0.5 mL/minute and an isocratic mobile phase of 60% CH3CN in 0.1% aqueous formic acid over 5 minutes. Positive electrospray in MRM mode was employed to quantify PQS and HHQ, using the ion transitions HHQ 244 to 159, d^4-HHQ 248 to 163, PQS 260 to 175, and d^4-PQS 264 to 179; shown in Table E3.
PqsA inhibitors 1-5 were evaluated for their ability to inhibit HHQ and PQS quinolone production in P. aeruginosa strain PA14 (FIG. 6). HHQ and PQS concentrations were determined by LC-MS/MS quantitation relative to deuterated internal standards. 6-Fluoroanthranilate (6FABA), a substrate analogue reported previously to inhibit quinolone production at millimolar concentrations, was used as a positive control. Compounds were initially tested at 1.5 mM concentration, and HHQ and PQS were quantified at 8 and 20 hours, respectively. These time points were selected based on an initial time course study of quinolone production in the absence of inhibitors, with HHQ or PQS production peaking at these respective time points. […] This could be due to differences in cell penetration, stability, and/or target specificity. Finally, because inhibitors of the quinolone quorum sensing pathway should not impact bacterial growth, we confirmed that none of the six inhibitors above inhibited growth over 20 h (FIG. 7A). Encouraged by the ability of anthranilyl-AMS (1) and anthranilyl-AMSN (2) to inhibit HHQ and PQS quinolone production, the activity of these two inhibitors and 6FABA were investigated in greater detail. In untreated controls, HHQ and PQS production peaked at 8 and 20 hours, respectively. Previously reported time course studies have similarly shown that HHQ levels peak at 6-8 hours while PQS levels continue to rise. See, e.g., Deziel et al. (2004) Proc. Natl. Acad. Sci. U.S.A 101, 1339; Kesarwani et al. (2011) PLoS Pathog. 7, e1002192. All three inhibitors were able to decrease quinolone production in a dose- and time-dependent manner (FIG. 2A). […] Such a perturbation might still be sufficient to impact P. aeruginosa virulence in vivo. […] See, e.g., Lesic et al. (2007) PLoS Pathog. 3, e126.

Regarding `Nc1ccccc1C(=O)O` [anthranilate], the Km at PqsA is 8 µM. Regarding `O=C(O)c1ccccc1` [benzoate], the Km at PqsA was 150 µM.

`Nc1ncnc2c1ncn2[C@@H]1O[C@H](COS(=O)(=O)NC(=O)c2ccccc2)[C@@H](O)[C@H]1O` [Benzoyl-AMS, reference compound]: the “PqsA inhibition, potency in words” value on P. aeruginosa PqsA is reported as “somewhat weaker inhibitor”. Besides, the “inhibition of quinolone production, in words” value in assay [1] is reported as “less potent inhibitors of quinolone production”.
